# According to US20090123581A1, “COLLAGEN CROSS-LINKING AGENTS ON DENTAL RESTORATIVE TREATMENT AND PREVENTIVE DENTISTRY” (THE BOARD OF TRUSTEES OF THE UNIVERSITY OF ILLINOIS, priority 2006, published 2009):
# Values joined by “and” are separate entries in the source; they are usually repeats but may differ in a detail not shown here. Identical values can stand only once.
# Experiments:
# [1] = Microtensile bond strength of adhesive restoration to sound dentin (Example 2); set-up: species or system human; conditions: 5% glutaraldehyde for 5 minutes, versus control (p=0.2395)
# Protocol: Effect of an exogenous collagen cross-linking agent on dentin bonding: In order to analyze the contribution of exogenous collagen cross-linking to sound and caries-affected dentin bonding, demineralized dentin surfaces were treated with 5% glutaraldehyde and the restored specimens were subjected to microtensile bond strength testing.
# Specimen preparation: Six human molars stored frozen (−20° C.) for less then one month were used. The teeth presented occlusal caries in which enamel was visually intact. The teeth were thawed, cleaned of adhering soft tissues, and the occlusal surfaces were ground flat with #320 and #600 grit Silicon Carbide (Sic) papers under running water to remove the enamel and expose flat middle dentin, respectively. […]
# Microtensile bond test (MTB): After 24 hrs in water at 37° C., the teeth were sectioned into 0.7±0.2 mm thick slabs, and the interfaces trimmed to an hourglass shape using a fine diamond bur to produce a cross-sectional area of 1 mm^2. The thickness of the slabs and the width of the trimmed surface were measured using a digital caliper (Fisher Scientific, New Jersey, N.J.) and specimens in sound and caries-affected dentin were obtained. […] MPa were determined by dividing the fracture load by the cross-sectional area of the interface.
# [2] = UTS of demineralized crown dentin tested parallel and perpendicular to dentinal tubules (Example 4); conditions: 1 hour
# Protocol: Specific synthetic and natural chemicals may increase the number of collagen cross-links within tooth dentin. To evaluate the effects of two cross-linking agents of different concentrations on the UTS of demineralized crown dentin tested parallel and perpendicular to dentinal tubules, the experiment described below was performed. FIG. 6 illustrates the steps of specimen preparation and treatment.
# Twenty sound molars were sectioned into 0.5±0.1 mm thick slabs that were further trimmed to 0.5±0.1 mm according to the tubule orientation (parallel-PR or perpendicular-PE). Specimens were demineralized with 10% phosphoric acid and divided into 10 groups according to treatment: control (water solution)/PR; control/PE, 6.5% proanthocyanidin (PA)/PR, 6.5% PA/PE; 0.65% PA/PR; 0.65% PA/PE; 25% glutaraldehyde (GD)/PR; 25% GD/PE; 5% GD/PR; 5% GD/PE. Specimens were kept in their respective solutions for 1 hour. To assess UTS, specimens were subjected to tensile forces at a crosshead speed of 1 mm/min. Statistical analysis was performed using two-way ANOVA and Fisher's PLSD test (p<0.05).
# [3] = UTS of demineralized dentin after collagenase challenge (Example 7); conditions: for UTS, individual specimens / UTS, mean: 1 h 25% GD or 6.5% GSE
# Protocol: The data shown below in Tables 7 to 14 and in FIG. 8 describes the effect of grape seed extract and Glutaraldehyde on the tensile strength of demineralized dentin after collagenase challenge. Samples were treated and then subjected to collagenase digestion.
# [4] = Ultimate tensile strength (UTS) of demineralized dentin after cross-linker treatment (Example 1); set-up: species or system human; conditions: for Ultimate tensile strength, mean: pH 7.4
# Text: (§1) Fixation Processes: Ten sound freshly extracted human molars were used in this study. The teeth were thawed, cleaned of adhering soft tissues, and the occlusal surfaces were ground flat with #320 grit Silicon Carbide paper under running water to remove part of the enamel. Flattening of the occlusal surface by removal of the cusps enables accurate sectioning of samples in beam shape. Teeth were sectioned into 0.5±0.1 by 0.5±0.1 mm thick beams (n=20 beams per tooth) with a slow speed diamond wafering blade (Buehler-Series 15LC Diamond, Lake Bluff, Ill., USA) under constant water coolant (FIG. 1A).
# (§2) The slabs were randomly divided into two groups: 1) undemineralized dentin and 2) demineralized dentin (FIG. 1A). In Group 2, dentin beams were immersed in 10% phosphoric acid solution (Fisher Scientific, New Jersey, N.J.) for a period of 5 hours. X-rays were taken from the specimens to verify complete tissue demineralization. Specimens were thoroughly rinsed with distilled water for 10 minutes to remove any residue of the phosphoric acid.
# (§3) Specimens from groups 1 and 2 were subdivided according to the dentin treatment (FIG. 1B). In Treatment A, specimens were immersed in PBS solution (pH: 7.4) as a control. In Treatment B, specimens were immersed in 0.5% Proanthocyanidin (MegaNatural—Polyphenolics Ind.) PBS solution (PA) at a pH of 7.4. In Treatment C, specimens were immersed in 0.625% Genipin (Wako Pure Chemical Ind.) PBS solution (GE) at a pH of 7.4. In Treatment D, specimens were immersed in 5% glutaraldehyde solution (GD) (Fisher Scientific, New Jersey, N.J.) at a pH of 7.4. Specimens were kept in their respective solutions for 4 and 40 hours at room temperature. After the incubation periods, specimens were thoroughly rinsed with distilled and deionized water to remove any remains of cross-linking agents and buffer.
# (§4) UTS testing: For UTS evaluation, the specimens were glued with a cyanoacrylate adhesive (Zapit—Dental Ventures of America Inc., Corona, Calif.) to a Ciucchi's jig, which was mounted on a universal testing machine (EZ Test, Shimazu Co., Kyoto, Japan) and subjected to microtensile testing at a crosshead speed of 1 mm/min (FIG. 1C). Means and standard deviations were calculated and expressed in microtensile bond strengths (MPa). Statistical analysis was performed using a two-way ANOVA and Fisher's PLSD tests (p<0.05).
# [5] = Ultimate tensile strength (UTS) of undemineralized (mineralized) dentin after cross-linker treatment (Example 1); set-up: species or system human; conditions: 0.625% GE or 5% GD; for Ultimate tensile strength, mean: pH 7.4
# Text: as §1, §2, §3, §4
# [6] = 24 hrs ammonium bicarbonate buffer, no collagenase
# [7] = 24 hrs collagenase 100 ug/ml + ammonium bicarbonate buffer
smiles,measurement,setting,value
"O=CCCCC=O [GD, glutaraldehyde]",effect on bond strength,[1],no significant effect
same,UTS,"[2]; 5% GD, tested Parallel to dentinal tubules","9.8 ± 1.5^BCD,b MPa"
same,UTS,"[2]; 5% GD, tested Perpendicular to dentinal tubules","15.7 ± 4.9^BCD,a MPa"
same,UTS,"[2]; 25% GD, tested Parallel to dentinal tubules","10.7 ± 2.7^B,b MPa"
same,UTS,"[2]; 25% GD, tested Perpendicular to dentinal tubules","18.6 ± 5.7^B,a MPa"
same,"UTS, individual specimens",[3]; [6],16.93 Mpa and 5.28 Mpa and 9.86 Mpa and 9.57 Mpa and 7.56 Mpa and 8.24 Mpa and 8.76 Mpa and 5.66 Mpa and 7.99 Mpa and 11.97 Mpa and 8.93 Mpa and 7.60 Mpa and 8.38 Mpa
same,"UTS, mean",[3]; [6],8.98 Mpa and 8.99 Mpa
same,"UTS, individual specimens",[3]; [7],10.31 Mpa and 16.54 Mpa and 8.71 Mpa and 8.46 Mpa and 5.59 Mpa and 8.18 Mpa and 9.27 Mpa and 12.33 Mpa and 17.30 Mpa and 7.74 Mpa and 9.75 Mpa and 6.29 Mpa and 16.53 Mpa
same,"UTS, mean",[3]; [7],10.54 Mpa
same,effect of collagenase digestion on treated demineralized dentin,"[3]; strength values versus baseline (no collagenase treatment), control groups fully digested",not affected by the collagenase treatment
same,"Ultimate tensile strength, mean","[4]; 4 hours in 0.5% PA, 0.625% GE or 5% GD",13.1 MPa
same,"Ultimate tensile strength, mean","[4]; 40 hours in 0.5% PA, 0.625% GE or 5% GD",9.1 MPa
same,"Ultimate tensile strength, pooled data","[4]; pooled over 4 and 40 hours, 0.5% PA, 0.625% GE or 5% GD",11.1 BC MPa
same,UTS values compared to the control group (statistics),"[4]; two-way ANOVA, Fisher's PLSD",no statistically significant differences
same,"Ultimate tensile strength, mean",[5]; 4 hours in 0.5% PA,94.5 MPa
same,"Ultimate tensile strength, mean",[5]; 40 hours in 0.5% PA,110.4 MPa
same,"Ultimate tensile strength, pooled data","[5]; pooled over 4 and 40 hours, 0.5% PA",102.5 A MPa
